Measurements taken from US20220002288A1, “MONOBACTAM COMPOUNDS AND USE THEREFOR” (priority 2018, published 2022).
In brackets after ≈: the same amount, converted by molar mass. Structures can show the parent of a compound that is named as a salt.

Legend:
Format in all cases: cell-based
Escherichia coli = test: In vitro antibacterial activity, minimum inhibitory concentration (MIC); conditions: strain CLB30048, read-out: MIC
Description: (§1) Compounds: The compounds prepared in the above examples and comparative examples. All test compounds were dissolved and diluted with DMSO, and the final concentrations were prepared as 64, 32, 16, 8, 4, 2, 1, 0.5, 0.25, 0.125, 0.0625 μg/mL in the experiment.
(§2) Bacterial strains: 6 strains of Acinetobacter baumannii (codenames: HDBAB-YK4, HDBAB-YK7, HDBAB-YK12, HDBAB-YK16, HDBAB_OXA_7, ATCC 19606), 2 strains of Pseudomonas aeruginosa (codenames: HDBPA-YK9, HDBPA)-YK15), 1 strain of Escherichia coli (codename: CLB30048), all provided by HD Biosciences (Shanghai) Co., Ltd.
(§3) Medium: Trypticase soy agar (TSA) (BD BBL 211043), and Cation-adjusted Mueller Hinton broth (CAMHB) (BD BBL212322).
(§4) The bacteria used for the minimum inhibitory concentration (MIC) test were stored frozen at −80° C., and needed 2 days to recover before use. A small amount of frozen bacteria was scraped with a sterile inoculation loop for streak inoculation on a TSA solid medium petri dish. The dish was placed in an ordinary incubator at 35±2° C. for 20-24 hours. 5-10 Colonies with similar morphologies were picked from the above-mentioned petri dish with a sterile inoculating loop for streak inoculation again on a TSA solid medium petri dish. The dish was then placed in an ordinary incubator at 35±2° C. for 20-24 hours.
(§5) 1.02×CAMHB liquid medium was taken out from a 4° C. refrigerator and placed at room temperature for preheating. 5-10 Individual bacterial colonies were picked from the solid petri dish of the above Section 2.1 and re-suspended in 500 μL of 0.9% NaCl, and then the OD600 was adjusted to 0.1-0.15 with a spectrophotometer. Then the bacteria were diluted 400 times with 1.02×CAMHB (two-step dilution method: firstly diluting 10 times, then diluting 40 times).
(§6) The number of inoculated bacteria can be obtained by counting the colonies on the petri dish (see Section 2.4).
(§7) One compound was arranged in each row of a 96-well test plate: the highest test concentration for each compound was 64 μg/mL, which was diluted by a factor of two.
(§8) Growth control (GC): 1.02×CAMHB and dimethyl sulfoxide (DMSO) containing bacterial inoculum, no compound.
(§9) Sterile control (SC): Containing 1.02×CAMHB and DMSO, no compound.
(§10) All test compounds were dissolved and diluted with DMSO. 50 μL of 3.2 mg/mL of each test compound was transferred to the initial well (A1-H1) of the dilution plate, and then 25 μL of DMSO was transferred to other wells. The test compounds were sequentially diluted by a factor of 2 from column 1 to column 11 (i.e. drawing 25 μL of test compound from column 1 to column 2 and mixing well, and then drawing 25 μL of test compound from column 2 to column 3 and mixing well, and then drawing 25 μL of test compound from column 3 to column 4 and mixing well, and so on, until diluting to column 11).
(§11) 2 μL of the compound was transferred from the compound plate to the corresponding well of the test plate. Meanwhile, 2 μL of 100% DMSO was transferred to the compound-free wells (the GC and SC wells).
(§12) 98 μL of the corresponding bacterial inoculum was added to the test plate (except for the SC well).
(§13) 98 μL of 1.02×CAMHB medium was added to the SC well of the test plate.
(§14) After the system was added, the test plate was covered with a sterile lid, centrifuged at 800 rpm for 30 seconds, then shaken on a plate shaker at 400 rpm for 1 minute for mixing well, and then placed in an incubator at 35±2° C. for 20 hours.
(§15) The inoculated bacteria were gradient diluted by 10 folds with the liquid medium, from 10^−1 to 10^−3. 100 μL of the above bacterial dilution was spread evenly on a TSA petri dish, 2 replicates for each dilution. After the medium was absorbed by TSA for 10 minutes, the petri dishes were reversed and incubated in an incubator at 35±2° C. for 24 hours.
(§16) A compound management system was turned on to check whether the barcode and compound arrangement of each test plate were correct. […]

Acinetobacter baumannii = test: as above
Description: as §1, §2, §3, §4, §5, §6, §7, §8, §9, §10, §11, §12, §13, §14, §15, §16

Pseudomonas aeruginosa = test: as above
Description: as §1, §2, §3, §4, §5, §6, §7, §8, §9, §10, §11, §12, §13, §14, §15, §16

[1] = tested on: Acinetobacter baumannii, Pseudomonas aeruginosa, and Escherichia coli; test: In vitro antibacterial activity, summary statements over all strains of Experimental Example 1; conditions: method of Experimental Example 1
Description: as §1, §2
The minimum inhibitory concentration (MIC) of each compound was recorded according to the guidelines of the Clinical and Laboratory Standards Institute.

Row | Compound | MIC (Escherichia coli) [µg/mL] | MIC (Acinetobacter baumannii; ATCC19606, strain ATCC 19606) [µg/mL] | MIC (Acinetobacter baumannii; strain HDBAB-YK4) [µg/mL] | MIC (Acinetobacter baumannii; strain HDBAB-YK7) [µg/mL] | MIC (Acinetobacter baumannii; strain HDBAB-YK12) [µg/mL] | MIC (Acinetobacter baumannii; strain HDBAB-YK16) [µg/mL] | MIC (Acinetobacter baumannii; strain HDBAB_OXA_7) [µg/mL] | MIC (Pseudomonas aeruginosa; strain HDBPA-YK9) [µg/mL] | MIC (Pseudomonas aeruginosa; strain HDBPA-YK15) [µg/mL] | in vitro antibacterial activity (in words) [1]
1 | C[n+]1cc(-c2ccc(OC[C@H](O/N=C(\C(=O)N[C@@H]3C(=O)N(OS(=O)(=O)[O-])C3(C)C)c3csc(N)n3)C(=O)O)cc2)ccc1NC(=O)[C@@H](N)CO [Example 6] | 32 (≈ 43.4 µM) | 64 (≈ 86.9 µM) | 32 (≈ 43.4 µM) | 64 (≈ 86.9 µM) | 4 (≈ 5.43 µM) | > 64 | 32 (≈ 43.4 µM) | 64 (≈ 86.9 µM) | > 64 | –
2 | CC1[C@@H](NC(=O)/C(=N\OC2(C(=O)O)CC2)c2csc(N)n2)[C@@H](CN2CCOC2=O)N1S(=O)(=O)O (stereo partly shown) [Compound B, reference compound] | > 64 | – | > 64 | > 64 | > 64 | > 64 | > 64 | > 64 | > 64 | significantly weaker
3 | C[n+]1cc(-c2ccc(OC[C@H](O/N=C(\C(=O)N[C@@H]3C(=O)N(OS(=O)(=O)[O-])C3(C)C)c3csc(N)n3)C(=O)O)cc2)ccc1NC(=O)[C@@H](N)CCN [Example 9] | 2 (≈ 2.67 µM) | 2 (≈ 2.67 µM) | 2 (≈ 2.67 µM) | 0.25 (≈ 0.333 µM) | 1 (≈ 1.33 µM) | 8 (≈ 10.7 µM) | 8 (≈ 10.7 µM) | 8 (≈ 10.7 µM) | > 64 | excellent antibacterial activity
4 | CC1(C)[C@H](NC(=O)/C(=N\O[C@@H](CCCOc2ccc(-c3cn(CCCN)[n+](CC4CNC4)c3)cc2)C(=O)O)c2csc(N)n2)C(=O)N1OS(=O)(=O)[O-] [Example 10, (S)-3-((Z)-2-(((S)-4-(4-(1-(3-aminopropyl)-2-(azetidin-3-ylmethyl)-1H-pyrazol-2-ium-4-yl)phenoxy)-1-carboxybutoxy)imino)-2-(2-aminothiazol-4-yl)acetylamino)-2,2-dimethyl-4-oxoazetidin-1-yl Sulfate] | 1 | 4 | 8 | 0.5 | 8 | 16 | 8 | 8 | 32 | –
